Experimental data taken from patent publication US20240307393A1, “PHARMACEUTICAL COMPOSITION FOR CANCER PREVENTION OR TREATMENT, COMPRISING CDK4/6 INHIBITOR AND TRICYCLIC ANTIDEPRESSANT” (priority 2021, published 2024).

Legend:
[1] = system: lung cancer cell line H460; assay: WST-1 cancer cell killing (cell survival) test in lung cancer cell line H460; format: cell-based; conditions: 48 hours; for Cell survival rate (%) Combined treatment with abemaciclib: antidepressant at Table 1 concentration combined with 4 μM abemaciclib; for Cell survival rate (%) Combined treatment with palbociclib: antidepressant at Table 1 concentration combined with 15 μM palbociclib; for Cell survival rate (%) Combined treatment with ribociclib: antidepressant at Table 1 concentration combined with 50 μM ribociclib; for Cell survival rate (%) Treatment with antidepressants alone: imipramine 100, clomipramine 40, desipramine 50, amitriptyline 45, imipramine blue 0.5 μM (Table 1)
Procedure: (§2) This experiment was conducted on the lung cancer cell line H460, the colorectal cancer cell line HCT116, and the breast cancer cell line MCF7. […] The cell lines H460 and MCF7 were cultured using RPMI1640 medium containing 10% FBS and 1% penicillin-streptomycin, and the cell line HCT116 was cultured using McCoy's 5A medium containing 10% FBS and 1% penicillin-streptomycin.
(§3) The cell lines H460, HCT116 and MCF7 were cultured at 3×10^3 cells/well in a 96 well plate. The next day, each drug was prepared at the concentrations shown in Tables 1 and 2, mixed with the medium, and then added to each well and left for 48 hours. After 48 hours, 10 ul/well of WST-1 reagent was added thereto and reacted for 1 hour. Samples reacted with WST-1 were analyzed by ELISA at 450 nM, and the same conditions were repeated three times to calculate the average value and standard error.

[2] = system: colorectal cancer cell line HCT116; assay: WST-1 cancer cell killing (cell survival) test in colorectal cancer cell line HCT116; format: cell-based, human; conditions: 48 hours; for Cell survival rate (%) Combined treatment with abemaciclib: antidepressant at Table 1 concentration combined with 0.2 μM abemaciclib; for Cell survival rate (%) Combined treatment with palbociclib: antidepressant at Table 1 concentration combined with 5 μM palbociclib; for Cell survival rate (%) Combined treatment with ribociclib: antidepressant at Table 1 concentration combined with 20 μM ribociclib; for Cell survival rate (%) Treatment with antidepressants alone: imipramine 100, clomipramine 40, desipramine 20, amitriptyline 25, imipramine blue 0.4 μM (Table 1)
Procedure: as §2, §3

[3] = system: breast cancer cell line MCF7; assay: WST-1 cancer cell killing (cell survival) test in breast cancer cell line MCF7; format: cell-based; conditions: 48 hours; for Cell survival rate (%) Combined treatment with abemaciclib: antidepressant at Table 1 concentration combined with 10 μM abemaciclib; for Cell survival rate (%) Combined treatment with palbociclib: antidepressant at Table 1 concentration combined with 20 μM palbociclib; for Cell survival rate (%) Combined treatment with ribociclib: antidepressant at Table 1 concentration combined with 30 μM ribociclib; for Cell survival rate (%) Treatment with antidepressants alone: imipramine 50, clomipramine 20, desipramine 50, amitriptyline 50, imipramine blue 0.1 μM (Table 1)
Procedure: This experiment was conducted on the lung cancer cell line H460, the colorectal cancer cell line HCT116, and the breast cancer cell line MCF7. As for the genetic characteristics of each cell line, the lung cancer cell line H460 has a KRAS mutation [p.Q61H], the colorectal cancer cell line HCT116 has a KRAS mutation [p.G13D], and the breast cancer cell line MCF7 has the characteristic of being positive for estrogen receptor and progesterone receptor but negative for HER2. The cell lines H460 and MCF7 were cultured using RPMI1640 medium containing 10% FBS and 1% penicillin-streptomycin, and the cell line HCT116 was cultured using McCoy's 5A medium containing 10% FBS and 1% penicillin-streptomycin.
Specifically, abemaciclib, ribociclib and palbociclib were used as CDK4/6 inhibitors, and DMSO was used as a solvent to prepare the drug stock. […] Each drug was used after diluting to the concentrations shown in Table 1 (antidepressant concentration used (μM)) and Table 2 (CDK4/6 inhibitor concentration used (μM)) below.
The cell lines H460, HCT116 and MCF7 were cultured at 3×10^3 cells/well in a 96 well plate. The next day, each drug was prepared at the concentrations shown in Tables 1 and 2, mixed with the medium, and then added to each well and left for 48 hours. After 48 hours, 10 ul/well of WST-1 reagent was added thereto and reacted for 1 hour. Samples reacted with WST-1 were analyzed by ELISA at […], and the same conditions were repeated three times to calculate the average value and standard error.

[4] = system: colorectal cancer cell line HCT116 subcutaneous tumor; assay: Tumor growth inhibition in HCT116 subcutaneous tumor model; format: in vivo, nude mice (Balb/c nude); set-up: reference not given here; conditions: HCT116 subcutaneous tumor in nude mice, desipramine 20 mg/kg intraperitoneally, abemaciclib 30 mg/kg orally, once a day
Procedure: To evaluate the anti-tumor effect, the tumor size was measured every day until day 14 after treatment, and the differences between each group were analyzed. The tumor size was calculated as follows: V (mm^3)=1/2×long axis (mm)×short axis (mm)×height (mm). By day 14, the tumor size was measured, a tumor growth graph was created, and the tumor size between each group was compared and analyzed.

[5] = Toxicity evaluation: hematoxylin and eosin histology of major normal organs; format: in vivo, nude mice (Balb/c nude); conditions: day 14; hematoxylin and eosin staining; desipramine 20 mg/kg intraperitoneally, abemaciclib 30 mg/kg orally, once a day
Procedure: (§1) Specifically, the human colorectal cancer cell line HCT116 was purchased from the American Type Culture Collection (ATCC, USA) and cultured in McCoy's 5A medium containing 10% fetal bovine serum (FBS) and penicillin-streptomycin under conditions of 37° C., 5% carbon dioxide and standard humidity.

[6] = Toxicity evaluation: body weight for 14 days; format: in vivo, nude mice (Balb/c nude); conditions: measured for 14 days; desipramine 20 mg/kg intraperitoneally, abemaciclib 30 mg/kg orally, once a day
Procedure: as §1

Compound	Cell survival rate (%) Combined treatment with abemaciclib [1]	Cell survival rate (%) Combined treatment with palbociclib [1]	Cell survival rate (%) Combined treatment with ribociclib [1]	Cell survival rate (%) Treatment with antidepressants alone [1]	Cell survival rate (%) Combined treatment with abemaciclib [2]	Cell survival rate (%) Combined treatment with palbociclib [2]	Cell survival rate (%) Combined treatment with ribociclib [2]	Cell survival rate (%) Treatment with antidepressants alone [2]	Cell survival rate (%) Combined treatment with abemaciclib [3]	Cell survival rate (%) Combined treatment with palbociclib [3]	Cell survival rate (%) Combined treatment with ribociclib [3]	Cell survival rate (%) Treatment with antidepressants alone [3]	also measured
CN(C)CCC=C1c2ccccc2CCc2ccccc21 [Amitriptyline]	50%	58%	32%	65%	64%	54%	46%	86%	21%	45%	28%	63%	
CN(C)CCCN1c2ccccc2CCc2ccc(Cl)cc21 [Clomipramine]	20%	33%	34%	65%	32%	34%	23%	65%	37%	43%	56%	81%	
CNCCCN1c2ccccc2CCc2ccccc21 [Desipramine]	24%	14%	16%	40%	28%	44%	29%	71%				60%	tumor size on day 14 [4]: 75.2%; histological changes of major organs (heart, lung, liver, spleen, kidney) compared to the control group [5]: no histological changes; body weight difference between groups [6]: no significant difference in body weight
CCN(CC)c1ccc(C(c2ccc(N(CC)CC)cc2)=c2ccc3c(c2)CCc2ccccc2[N+]=3CCCN(C)C)cc1 [Imipramine blue]	50%	36%	36%	62%	39%	43%	31%	53%	43%	59%	60%	88%	
CN(C)CCCN1c2ccccc2CCc2ccccc21 [Imipramine]	20%	53%	47%		58%	41%	39%		34%	53%	55%		
CCN1CCN(Cc2ccc(Nc3ncc(F)c(-c4cc(F)c5nc(C)n(C(C)C)c5c4)n3)nc2)CC1 [abemaciclib]													lung cancer cell survival rate, abemaciclib alone ([1]; 4 μM abemaciclib alone, WST-1): 71%; colorectal cancer cell survival rate, abemaciclib alone ([2]; 0.2 μM abemaciclib alone, WST-1): 87%; breast cancer cell survival rate, abemaciclib alone ([3]; 10 μM abemaciclib alone, WST-1): 59%; tumor size on day 14 [4]: 54.6%; histological changes of major organs (heart, lung, liver, spleen, kidney) compared to the control group [5]: no histological changes; body weight difference between groups [6]: no significant difference in body weight
CC(=O)c1c(C)c2cnc(Nc3ccc(N4CCNCC4)cn3)nc2n(C2CCCC2)c1=O [palbociclib]													lung cancer cell survival rate, palbociclib alone ([1]; 15 μM palbociclib alone, WST-1): 67%; colorectal cancer cell survival rate, palbociclib alone (HCT116 section) ([2]; 5 μM palbociclib alone, WST-1): 79%; breast cancer cell survival rate, palbociclib alone ([3]; 20 μM palbociclib alone, WST-1): 75%
CN(C)C(=O)c1cc2cnc(Nc3ccc(N4CCNCC4)cn3)nc2n1C1CCCC1 [ribociclib]													lung cancer cell survival rate, ribociclib alone ([1]; 50 μM ribociclib alone, WST-1): 72%; colorectal cancer cell survival rate, ribociclib alone ([2]; 20 μM ribociclib alone, WST-1): 73%; breast cancer cell survival rate, ribociclib alone ([3]; 30 μM ribociclib alone, WST-1): 80%
